In patent publication US7015237B2, “Pyridine matrix metalloproteinase inhibitors” (Warner-Lambert Company, priority 2001, dated 2006):
Like-named read-outs stand apart in the source and are kept apart here.

Assays:
[1] = biological target: MMP-13 (catalytic domain of collagenase 3) (Homo sapiens, UniProt P45452); experiment: Thiopeptolide substrate hydrolysis assay, MMP-13; format: biochemical
From the text: The assays used to evaluate the biological activity of the invention compounds are well known and routinely used by those skilled in the study of MMP inhibitors and their use to treat clinical conditions.
The assays measure the amount by which a test compound reduces the hydrolysis of a thiopeptolide substrate catalyzed by a matrix metalloproteinase enzyme. Such assays are described in detail by Ye et al., in Biochemistry, 1992; 31(45):11231–11235, which is incorporated herein by reference.
Thiopeptolide substrates show virtually no decomposition or hydrolysis at or below neutral pH in the absence of a matrix metalloproteinase enzyme. A typical thiopeptolide substrate commonly utilized for assays is Ac-Pro-Leu-Gly-thioester-Leu-Leu-Gly-OEt. A 100-μL assay mixture will contain 50 mM of N-2-hydroxyethylpiperazine-N′-2-ethanesulfonic acid buffer (“HEPES”) at pH 7.0, 10 mM CaCl2, 100 μM thiopeptolide substrate, and 1 mM 5,5′-dithio-bis-(2-nitro-benzoic acid) (DTNB). The thiopeptolide substrate concentration may be varied from, for example, 10 to 800 μM to obtain Km and Kcat values. The change in absorbance at 405 nm is monitored on a Thermo Max microplate reader (Molecular Devices, Menlo Park, Calif.) at room temperature (22° C.). The calculation of the amount of hydrolysis of the thiopeptolide substrate is based on E412=13600 M^−1 cm^−1 for the DTNB-derived product 3-carboxy-4-nitrothiophenoxide. Assays are carried out with and without matrix metalloproteinase inhibitor compounds, and the amount of hydrolysis is compared for a determination of inhibitory activity of the test compounds.
In the tables, MMP-1 refers to full-length interstitial collagenase; MMP-3 refers to the catalytic domain of stromelysin-1; MMP-13 refers to the catalytic domain of collagenase 3. Test compounds were evaluated at various concentrations to determine their respective IC50 values.

[2] = catalytic domain of collagenase 3, Table 1, read-out: MMP-13 IC50
[3] = catalytic domain, human, combinatorial compounds of Example 14, Table 2, read-out: MMP-13 IC50 CD/Human

| Molecule | IC50 [1, 3] | further results |
| --- | --- | --- |
| COc1cccc(CNC(=O)c2ccnc(C(=O)NCc3cccc(OC)c3)c2)c1 [Example 1, Pyridine-2,4-dicarboxylic acid bis-(3-methoxy-benzylaride)] | – | IC50 [1, 2]: 0.035 µM |
| O=C(NCc1ccc(Cl)cc1)c1cncc(C(=O)NCc2ccc(Cl)cc2)c1 [Example 2, Pyridine-3,5-dicarboxylic acid bis-(4-chloro-benzylamide)] | – | melting point: 224 to 225 °C |
| COc1ncc(C(=O)NCc2ccc3c(c2)OCO3)cc1C(=O)NCc1ccc2c(c1)OCO2 [Example 4, 2-Methoxy-pyridine-3,5-dicarboxylic acid bis-[(1,3-benzodioxol-5-ylmethyl)-amide]] | – | IC50 [1, 2]: 0.23 µM |
| O=C(OCc1ccc2c(c1)OCO2)c1cncc(C(=O)OCc2ccc3c(c2)OCO3)c1 [Example 5, Pyridine-3,5-dicarboxylic acid bis-(1,3-benzodioxol-5-ylmethyl) ester] | – | melting point: 113 to 114 °C |
| O=C(NCc1ccc2c(c1)OCO2)c1ccnc(C(=O)NCc2ccc3c(c2)OCO3)c1 [Example 8, Pyridine-2,4-dicarboxylic acid bis-[(1,3-benzodioxol-5-ylmethyl)-amide]] | – | IC50 [1, 2]: 0.014 µM |
| O=C(NCCc1ccccc1Oc1ccccc1)c1ccnc(C(=O)NCCc2ccccc2Oc2ccccc2)c1 [Example 14.12, Pyridine-2,4-dicarboxylic acid bis-{[2-(2-phenoxy-phenyl)-ethyl]-amide}] | 30 µM | – |
| CCc1ccc(CCNC(=O)c2ccnc(C(=O)NCCc3ccc(CC)cc3)c2)cc1 [Example 14.19, Pyridine-2,4-dicarboxylic acid bis-{[2-(4-ethyl-phenyl)-ethyl]-amide}] | 30 µM | – |
| O=C(NC(Cc1ccccc1)c1ccccc1)c1ccnc(C(=O)NC(Cc2ccccc2)c2ccccc2)c1 (stereo not drawn) [Example 14.21, Pyridine-2,4-dicarboxylic acid bis-[(1,2-diphenyl-ethyl)-amide]] | 30 µM | – |
| O=C(NCc1ccc(Cl)cc1Cl)c1ccnc(C(=O)NCc2ccc(Cl)cc2Cl)c1 [Example 14.22, Pyridine-2,4-dicarboxylic acid bis-(2,4-dichloro-benzylamide)] | 30 µM | – |
| O=C(NCc1ccccc1-c1ccccc1)c1ccnc(C(=O)NCc2ccccc2-c2ccccc2)c1 [Example 14.23, Pyridine-2,4-dicarboxylic acid bis-[(biphenyl-2-ylmethyl)-amide]] | 30 µM | – |
| Nc1ccc(CNC(=O)c2ccnc(C(=O)NCc3ccc(N)cc3)c2)cc1 [Example 14.44, Pyridine-2,4-dicarboxylic acid bis-(4-amino-benzylamide)] | 70 µM | – |
| COc1ccc(C(NC(=O)c2ccnc(C(=O)NC(c3ccc(OC)cc3)c3ccc(OC)cc3)c2)c2ccc(OC)cc2)cc1 [Example 14.46, Pyridine-2,4-dicarboxylic acid bis-{[bis-(4-methoxy-phenyl)-methyl]-amide}] | 30 µM | – |
| O=C(NCCC(c1ccccc1)c1ccccc1)c1ccnc(C(=O)NCCC(c2ccccc2)c2ccccc2)c1 [Example 14.47, Pyridine-2,4-dicarboxylic acid bis-[(3,3-diphenyl-propyl)-amide]] | 30 µM | – |
| O=C(NCc1ccccc1F)c1ccnc(C(=O)NCc2ccccc2F)c1 [Example 14.50, Pyridine-2,4-dicarboxylic acid bis-(2-fluoro-benzylamide)] | 84 µM | – |
| O=C(NCc1cccnc1)c1ccnc(C(=O)NCc2cccnc2)c1 [Example 14.57, Pyridine-2,4-dicarboxylic acid bis-[(pyridin-3-ylmethyl)-amide]] | 34 µM | – |
| O=C(NCc1ccc(C(F)(F)F)cc1)c1ccnc(C(=O)NCc2ccc(C(F)(F)F)cc2)c1 [Example 14.61, Pyridine-2,4-dicarboxylic acid bis-(4-trifluoromethyl-benzylamide)] | 30 µM | – |
| Cc1ccc(CNC(=O)c2ccnc(C(=O)NCc3ccc(C)o3)c2)o1 [Example 14.62, Pyridine-2,4-dicarboxylic acid bis-[(5-methyl-furan-2-ylmethyl)-amide]] | 88 µM | – |
| CC(NC(=O)c1ccnc(C(=O)NC(C)c2cccc3ccccc23)c1)c1cccc2ccccc12 (stereo not drawn) [Example 14.65, Pyridine-2,4-dicarboxylic acid bis-[(1-naphthalen-1-yl-ethyl)-amide]] | 30 µM | – |
| O=C(NCCc1ccc(O)cc1)c1ccnc(C(=O)NCCc2ccc(O)cc2)c1 [Example 14.66, Pyridine-2,4-dicarboxylic acid bis-{[2-(4-hydroxy-phenyl)-ethyl]-amide}] | 30 µM | – |
| COc1ccc2[nH]cc(CCNC(=O)c3ccnc(C(=O)NCCc4c[nH]c5ccc(OC)cc45)c3)c2c1 [Example 14.78, Pyridine-2,4-dicarboxylic acid bis-{[2-(5-methoxy-1H-indol-3-yl)-ethyl]-amide}] | 30 µM | – |
| O=C(NCCc1c[nH]c2ccccc12)c1ccnc(C(=O)NCCc2c[nH]c3ccccc23)c1 [Example 14.79, Pyridine-2,4-dicarboxylic acid bis-{[2-(1H-indol-3-yl)-ethyl]-amide}] | 30 µM | – |
| O=C(NCc1cc(Cl)cc(Cl)c1)c1ccnc(C(=O)NCc2cc(Cl)cc(Cl)c2)c1 [Example 14.80, Pyridine-2,4-dicarboxylic acid bis-(3,5-dichloro-benzylamide)] | 30 µM | – |
| Pyridine-2,4-dicarboxylic acid bis-benzylamide [Example 14.5] | 0.29 µM | – |
| Pyridine-2,4-dicarboxylic acid bis-indan-1-ylamide [Example 14.73] | 0.44 µM | – |

The next lines start with results.

| IC50 [1, 3] | Molecule | further results |
| --- | --- | --- |
| 0.038 µM | COc1cccc(CNC(=O)c2ccnc(C(=O)NCc3cccc(OC)c3)c2)c1 [Example 14.1, Pyridine-2,4-dicarboxylic acid bis-(3-methoxy-benzylamide)] | – |
| 0.033 µM | O=C(NCc1ccc2c(c1)OCO2)c1ccnc(C(=O)NCc2ccc3c(c2)OCO3)c1 [Example 14.2, Pyridine-2,4-dicarboxylic acid bis-[(1,3-benzodioxol-5-ylmethyl)-amide]] | – |
| 0.3 µM | O=C(NCc1ccc(Cl)cc1)c1ccnc(C(=O)NCc2ccc(Cl)cc2)c1 [Example 14.4, Pyridine-2,4-dicarboxylic acid bis-(4-chloro-benzylamide)] | – |
| 30 µM | O=C(NCc1cccc2ccccc12)c1ccnc(C(=O)NCc2cccc3ccccc23)c1 [Example 14.6, Pyridine-2,4-dicarboxylic acid bis-[(naphthalen-1-ylmethyl)-amide]] | – |
| 0.13 µM | COc1ccc(CNC(=O)c2ccnc(C(=O)NCc3ccc(OC)cc3)c2)cc1 [Example 14.8, Pyridine-2,4-dicarboxylic acid bis-(4-methoxy-benzylamide)] | – |
| 0.18 µM | O=C(NCc1cccc(F)c1)c1ccnc(C(=O)NCc2cccc(F)c2)c1 [Example 14.9, Pyridine-2,4-dicarboxylic acid bis-(3-fluoro-benzylamide)] | – |
| 0.074 µM | O=C(NCc1cccc(Cl)c1)c1ccnc(C(=O)NCc2cccc(Cl)c2)c1 [Example 14.25, Pyridine-2,4-dicarboxylic acid bis-(3-chloro-benzylamide)] | – |
| 2 µM | O=C(NCc1ccncc1)c1ccnc(C(=O)NCc2ccncc2)c1 [Example 14.32, Pyridine-2,4-dicarboxylic acid bis-[(pyridin-4-ylmethyl)-amide]] | – |
| 0.31 µM | O=C(NCc1cccc(C(F)(F)F)c1)c1ccnc(C(=O)NCc2cccc(C(F)(F)F)c2)c1 [Example 14.35, Pyridine-2,4-dicarboxylic acid bis-(3-trifluoromethyl-benzylamide)] | – |
| 0.26 µM | O=C(NCc1cccc(OC(F)F)c1)c1ccnc(C(=O)NCc2cccc(OC(F)F)c2)c1 [Example 14.37, Pyridine-2,4-dicarboxylic acid bis-(3-difluoromethoxy-benzylamide)] | – |
| 0.28 µM | O=C(NCc1ccc(F)c(C(F)(F)F)c1)c1ccnc(C(=O)NCc2ccc(F)c(C(F)(F)F)c2)c1 [Example 14.39, Pyridine-2,4-dicarboxylic acid bis-(4-fluoro-3-trifluoromethyl-benzylamide)] | – |
| 0.04 µM | O=C(NCc1ccc(F)c(Cl)c1)c1ccnc(C(=O)NCc2ccc(F)c(Cl)c2)c1 [Example 14.42, Pyridine-2,4-dicarboxylic acid bis-(3-chloro-4-fluoro-benzylamide)] | – |
| 1.5 µM | Cc1ccc(CNC(=O)c2ccnc(C(=O)NCc3ccc(C)cc3)c2)cc1 [Example 14.54, Pyridine-2,4-dicarboxylic acid bis-(4-methyl-benzylamide)] | – |
| 13 µM | O=C(NCc1cccs1)c1ccnc(C(=O)NCc2cccs2)c1 [Example 14.60, Pyridine-2,4-dicarboxylic acid bis-[(thiophen-2-ylmethyl)-amide]] | – |
| 4 µM | O=C(NCc1cccc(OC(F)(F)F)c1)c1ccnc(C(=O)NCc2cccc(OC(F)(F)F)c2)c1 [Example 14.67, Pyridine-2,4-dicarboxylic acid bis-(3-trifluoromethoxy-benzylamide)] | – |
